Columns and labels:
Format in all cases: functional
[1] = tested on: BT-549; assay: Growth inhibition of human BT549 cells incubated for 48 hrs by sulforhodamine B assay; settings: BT-549, 48 h
[2] = tested on: SF-295; assay: Growth inhibition of human SF295 cells incubated for 48 hrs by sulforhodamine B assay; settings: SF-295, 48 h
[3] = tested on: RXF 393; assay: Growth inhibition of human RXF393 cells incubated for 48 hrs by sulforhodamine B assay; settings: RXF 393, 48 h
[4] = tested on: NCI/ADR-RES; assay: Growth inhibition of human NCI-ADR-RES cells incubated for 48 hrs by sulforhodamine B assay
[5] = tested on: MDA-MB-435; assay: Growth inhibition of human MDA-MB-435 cells incubated for 48 hrs by sulforhodamine B assay; settings: MDA-MB-435, 48 h
[6] = tested on: SNB-19; assay: Growth inhibition of human SNB19 cells incubated for 48 hrs by sulforhodamine B assay; settings: SNB-19, 48 h
[7] = tested on: SK-MEL-5; assay: Growth inhibition of human SK-MEL-5 cells incubated for 48 hrs by sulforhodamine B assay; settings: SK-MEL-5, 48 h
[8] = tested on: T47D; assay: Growth inhibition of human T47D cells incubated for 48 hrs by sulforhodamine B assay
[9] = tested on: HL-60; assay: Growth inhibition of human HL60 cells incubated for 48 hrs by sulforhodamine B assay; settings: HL-60, 48 h
[10] = tested on: NCI-H226; assay: Growth inhibition of human NCI-H226 cells incubated for 48 hrs by sulforhodamine B assay; settings: NCI-H226, 48 h
[11] = tested on: DU-145; assay: Growth inhibition of human DU145 cells incubated for 48 hrs by sulforhodamine B assay; settings: DU-145, 48 h
[12] = tested on: NCI-H460; assay: Growth inhibition of human NCI-H460 cells incubated for 48 hrs by sulforhodamine B assay; settings: NCI-H460, 48 h
[13] = tested on: Hs-578T; assay: Growth inhibition of human Hs 578T cells incubated for 48 hrs by sulforhodamine B assay
[14] = tested on: RPMI-8226; assay: Growth inhibition of human RPMI8226 cells incubated for 48 hrs by sulforhodamine B assay; settings: RPMI-8226, 48 h
[15] = tested on: OVCAR-3; assay: Growth inhibition of human OVCAR3 cells incubated for 48 hrs by sulforhodamine B assay; settings: OVCAR-3, 48 h
[16] = tested on: SW-620; assay: Growth inhibition of human SW620 cells incubated for 48 hrs by sulforhodamine B assay; settings: SW-620, 48 h
[17] = tested on: MDA-MB-231; assay: Growth inhibition of human MDA-MB-231 cells incubated for 48 hrs by sulforhodamine B assay; settings: MDA-MB-231, 48 h
[18] = tested on: OVCAR-8; assay: Growth inhibition of human OVCAR8 cells incubated for 48 hrs by sulforhodamine B assay; settings: OVCAR-8, 48 h
[19] = tested on: 786-0; assay: Growth inhibition of human 786-0 cells incubated for 48 hrs by sulforhodamine B assay; settings: 786-0, 48 h
[20] = tested on: UO-31; assay: Growth inhibition of human UO31 cells incubated for 48 hrs by sulforhodamine B assay; settings: UO-31, 48 h
[21] = tested on: KM12; assay: Growth inhibition of human KM12 cells incubated for 48 hrs by sulforhodamine B assay; settings: KM12, 48 h
[22] = tested on: MDA-MB-468; assay: Growth inhibition of human MDA-MB-468 cells incubated for 48 hrs by sulforhodamine B assay; settings: MDA-MB-468, 48 h
[23] = tested on: SK-OV-3; assay: Growth inhibition of human SKOV3 cells incubated for 48 hrs by sulforhodamine B assay; settings: SK-OV-3, 48 h
[24] = tested on: SF-539; assay: Growth inhibition of human SF539 cells incubated for 48 hrs by sulforhodamine B assay; settings: SF-539, 48 h
[25] = tested on: HT-29; assay: Growth inhibition of human HT-29 cells incubated for 48 hrs by sulforhodamine B assay; settings: HT-29, 48 h
[26] = tested on: SF-268; assay: Growth inhibition of human SF268 cells incubated for 48 hrs by sulforhodamine B assay; settings: SF-268, 48 h
[27] = tested on: M14; assay: Growth inhibition of human M14 cells incubated for 48 hrs by sulforhodamine B assay; settings: M14, 48 h
[28] = tested on: TK-10; assay: Growth inhibition of human TK10 cells incubated for 48 hrs by sulforhodamine B assay; settings: TK-10, 48 h
[29] = tested on: ACHN; assay: Growth inhibition of human ACHN cells incubated for 48 hrs by sulforhodamine B assay
[30] = tested on: NCI-H522; assay: Growth inhibition of human NCI-H522 cells incubated for 48 hrs by sulforhodamine B assay; settings: NCI-H522, 48 h
[31] = tested on: HOP-62; assay: Growth inhibition of human HOP62 cells incubated for 48 hrs by sulforhodamine B assay; settings: HOP-62, 48 h
[32] = tested on: UACC-62; assay: Growth inhibition of human UACC62 cells incubated for 48 hrs by sulforhodamine B assay; settings: UACC-62, 48 h
[33] = tested on: A549; assay: Growth inhibition of human A549/ATCC cells incubated for 48 hrs by sulforhodamine B assay; settings: A549, 48 h
[34] = tested on: COLO 205; assay: Growth inhibition of human COLO205 cells incubated for 48 hrs by sulforhodamine B assay; settings: COLO 205, 48 h
[35] = tested on: NCI-H322M; assay: Growth inhibition of human NCI-H322M cells incubated for 48 hrs by sulforhodamine B assay
[36] = tested on: HOP-92; assay: Growth inhibition of human HOP92 cells incubated for 48 hrs by sulforhodamine B assay; settings: HOP-92, 48 h
[37] = tested on: HCC 2998; assay: Growth inhibition of human HCC2998 cells incubated for 48 hrs by sulforhodamine B assay; settings: HCC 2998, 48 h
[38] = tested on: IGROV-1; assay: Growth inhibition of human IGROV1 cells incubated for 48 hrs by sulforhodamine B assay; settings: IGROV-1, 48 h
[39] = tested on: K562; assay: Growth inhibition of human K562 cells incubated for 48 hrs by sulforhodamine B assay; settings: K562, 48 h
[40] = tested on: SR; assay: Growth inhibition of human SR cells incubated for 48 hrs by sulforhodamine B assay
[41] = tested on: MOLT-4; assay: Growth inhibition of human MOLT4 cells incubated for 48 hrs by sulforhodamine B assay; settings: MOLT-4, 48 h
[42] = tested on: HCT-15; assay: Growth inhibition of human HCT15 cells incubated for 48 hrs by sulforhodamine B assay; settings: HCT-15, 48 h
[43] = tested on: NCI-H23; assay: Growth inhibition of human NCI-H23 cells incubated for 48 hrs by sulforhodamine B assay; settings: NCI-H23, 48 h
[44] = tested on: CCRF-CEM; assay: Growth inhibition of human CCRF-CEM cells incubated for 48 hrs by sulforhodamine B assay
[45] = tested on: OVCAR-4; assay: Growth inhibition of human OVCAR4 cells incubated for 48 hrs by sulforhodamine B assay; settings: OVCAR-4, 48 h
[46] = tested on: A498; assay: Growth inhibition of human A498 cells incubated for 48 hrs by sulforhodamine B assay; settings: A498, 48 h
[47] = tested on: PC-3; assay: Growth inhibition of human PC3 cells incubated for 48 hrs by sulforhodamine B assay; settings: PC-3, 48 h
[48] = tested on: CAKI-1; assay: Growth inhibition of human Caki1 cells incubated for 48 hrs by sulforhodamine B assay; settings: CAKI-1, 48 h

## CNCCCNCCCN1C(=O)c2ccc3c4c(ccc(c24)C1=O)C(=O)N(CCCNCc1ccccc1OC)C3=O
[1]
  GI50: 5030 nM
[2]
  GI50: 894 nM
[3]
  GI50: 1890 nM
[4]
  GI50: 12100 nM
[5]
  GI50: 1070 nM
[6]
  GI50: 1680 nM
[7]
  GI50: 1100 nM
[8]
  GI50: 1250 nM
[9]
  GI50: 2000 nM
[10]
  GI50: 1420 nM
[11]
  GI50: 1050 nM
[12]
  GI50: 429 nM
[13]
  GI50: 3020 nM
[14]
  GI50: 1640 nM
[15]
  GI50: 1370 nM
[16]
  GI50: 365 nM
[17]
  GI50: 2900 nM
[18]
  GI50: 797 nM
[19]
  GI50: 1270 nM
[20]
  GI50: 5880 nM
[21]
  GI50: 1180 nM
[22]
  GI50: 1000 nM
[23]
  GI50: 2950 nM
[24]
  GI50: 782 nM
[25]
  GI50: 381 nM
[26]
  GI50: 1030 nM
[27]
  GI50: 1320 nM
[28]
  GI50: 2580 nM
[29]
  GI50: 500 nM
[30]
  GI50: 1230 nM
[31]
  GI50: 1240 nM
[32]
  GI50: 1520 nM
[33]
  GI50: 577 nM
[34]
  GI50: 498 nM
[35]
  GI50: 2220 nM
[36]
  GI50: 2130 nM
[37]
  GI50: 1930 nM
[38]
  GI50: 1450 nM
[39]
  GI50: 408 nM
[40]
  GI50: 270 nM
[41]
  GI50: 534 nM
[42]
  GI50: 2360 nM
[43]
  GI50: 1260 nM
[44]
  GI50: 465 nM
[45]
  GI50: 641 nM
[46]
  GI50: 1540 nM
[47]
  GI50: 1600 nM

## COc1ccccc1CNCCCN1C(=O)c2ccc3c4c(ccc(c24)C1=O)C(=O)N(CCCNCCCCN)C3=O
[1]
  GI50: 1180 nM
[2]
  GI50: 448 nM
[3]
  GI50: 582 nM
[4]
  GI50: 366 nM
[5]
  GI50: 184 nM
[48]
  GI50: 198 nM
[6]
  GI50: 292 nM
[7]
  GI50: 153 nM
[8]
  GI50: 215 nM
[9]
  GI50: 216 nM
[10]
  GI50: 808 nM
[11]
  GI50: 853 nM
[12]
  GI50: 313 nM
[13]
  GI50: 1120 nM
[14]
  GI50: 394 nM
[15]
  GI50: 293 nM
[16]
  GI50: 155 nM
[17]
  GI50: 204 nM
[18]
  GI50: 231 nM
[19]
  GI50: 616 nM
[20]
  GI50: 1860 nM
[21]
  GI50: 324 nM
[22]
  GI50: 85 nM
[23]
  GI50: 290 nM
[24]
  GI50: 280 nM
[25]
  GI50: 188 nM
[26]
  GI50: 268 nM
[27]
  GI50: 343 nM
[29]
  GI50: 535 nM
[30]
  GI50: 172 nM
[31]
  GI50: 290 nM
[32]
  GI50: 175 nM
[33]
  GI50: 258 nM
[34]
  GI50: 110 nM
[36]
  GI50: 273 nM
[37]
  GI50: 149 nM
[38]
  GI50: 179 nM
[39]
  GI50: 281 nM
[40]
  GI50: 76 nM
[41]
  GI50: 302 nM
[42]
  GI50: 165 nM
[43]
  GI50: 193 nM
[44]
  GI50: 275 nM
[45]
  GI50: 155 nM
[46]
  GI50: 619 nM
[47]
  GI50: 230 nM

## COc1ccccc1CNCCCN1C(=O)c2ccc3c4c(ccc(c24)C1=O)C(=O)N(CCCNCCNCCCN)C3=O
[1]
  GI50: 2580 nM
[2]
  GI50: 2770 nM
[3]
  GI50: 1650 nM
[4]
  GI50: 23100 nM
[5]
  GI50: 2070 nM
[48]
  GI50: 21700 nM
[6]
  GI50: 2180 nM
[7]
  GI50: 1570 nM
[8]
  GI50: 1510 nM
[9]
  GI50: 254 nM
[10]
  GI50: 2990 nM
[11]
  GI50: 3650 nM
[12]
  GI50: 2080 nM
[13]
  GI50: 5510 nM
[14]
  GI50: 10900 nM
[15]
  GI50: 2160 nM
[16]
  GI50: 1740 nM
[17]
  GI50: 2090 nM
[18]
  GI50: 2080 nM
[20]
  GI50: 10800 nM
[21]
  GI50: 3250 nM
[22]
  GI50: 456 nM
[23]
  GI50: 4040 nM
[24]
  GI50: 2880 nM
[25]
  GI50: 2070 nM
[26]
  GI50: 2100 nM
[27]
  GI50: 2070 nM
[28]
  GI50: 6650 nM
[29]
  GI50: 4450 nM
[30]
  GI50: 1220 nM
[31]
  GI50: 2460 nM
[32]
  GI50: 1680 nM
[33]
  GI50: 3010 nM
[36]
  GI50: 6700 nM
[37]
  GI50: 2250 nM
[38]
  GI50: 3690 nM
[39]
  GI50: 324 nM
[40]
  GI50: 898 nM
[41]
  GI50: 173 nM
[42]
  GI50: 12200 nM
[43]
  GI50: 1720 nM
[44]
  GI50: 317 nM
[45]
  GI50: 466 nM
[46]
  GI50: 5010 nM
[47]
  GI50: 5910 nM

Reference: ChEMBL document CHEMBL4004831, “Naphthalene diimide-polyamine hybrids as antiproliferative agents: Focus on the architecture of the polyamine chains” (Eur J Med Chem, 2017)
